Results from patent US8796313B2, “Substituted dihydroisoindolones as allosteric modulators of glucokinase” (Janssen Pharmaceutica N.V., priority 2005, dated 2014).

Target: T1, human pancreas Glucokinase (GK) (Homo sapiens, UniProt P35557)
T1 construct: His6; made in house; host or cells: Escherichia coli
T1 sequence (P35557 1-465): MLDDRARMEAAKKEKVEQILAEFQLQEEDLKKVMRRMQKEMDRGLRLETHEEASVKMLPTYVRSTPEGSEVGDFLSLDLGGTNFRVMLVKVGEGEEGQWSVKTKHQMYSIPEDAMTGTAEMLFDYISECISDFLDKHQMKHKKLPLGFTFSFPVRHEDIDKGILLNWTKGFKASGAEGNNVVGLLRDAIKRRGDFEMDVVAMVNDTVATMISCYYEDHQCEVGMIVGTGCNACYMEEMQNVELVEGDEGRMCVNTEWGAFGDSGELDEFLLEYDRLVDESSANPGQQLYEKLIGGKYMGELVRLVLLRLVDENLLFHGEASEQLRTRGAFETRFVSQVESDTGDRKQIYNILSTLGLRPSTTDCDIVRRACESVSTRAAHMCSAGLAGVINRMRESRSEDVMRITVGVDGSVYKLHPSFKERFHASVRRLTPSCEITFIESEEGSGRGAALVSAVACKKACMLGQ
Test: Glucokinase enzyme assay, pancreas GK
Assay type: biochemical
Conditions: for activation at 50 µM: increase in GK activity above vehicle control, compound 50 μM, 12 mM glucose; for EC50: concentration that produces 50% activation above vehicle control; for EC100%: concentration that produces 100% activation above vehicle control
Text: An enzymatic Glucokinase (GK) assay using purified recombinant human liver/pancreas enzyme was used to evaluate the effects of potential small molecule modulators.
In this assay, GK catalyzes glucose phosphorylation in the presence of ATP. The product of this reaction, glucose-6-phosphate, was then oxidized by an excess of glucose-6-phosphate dehydrogenase to produce gluconate-6-phosphate with concomitant reduction of nicotinamide adenine dinucleotide (NAD). […] Human GK (Liver/Pancreas) was expressed in Escherichia coli as a (His) 6-tagged fusion protein and was purified by metal chelate affinity chromatography. The assay was performed in a final incubation volume of 80 μl in a 96-well clear low UV absorption plates. The incubation mixture consisted of 25 mM HEPES, 2 mM MgSO4, 1 mM dithiothreotol (DTT), 1 mg/mL bovine serum albumin (BSA), 1 mM ATP, 1 mM NAD, and 12 mM glucose, 10 units per mL glucose-6-phosphate dehydrogenase, and +/−300 ng per mL GK. For determination of the affinity (Km) and Vmax, different concentrations of glucose ranging from 0.5 mM to 40 mM were used in the assay; see Grimsby, J., Sarabu, R.; Grippo, J. F.; et. al. Science 2003, 301, 370-373. […] EC50% (μM) was calculated as the effective concentration of the compound that produces 50% activation above the vehicle control, and EC100% (μM) was calculated as the effective concentration of the compound that produces 100% activation above the vehicle control.

Row | SMILES | activation at 50 µM [%] | EC50 [nM] | EC100% [µM]
1 | O=C(CC1c2ccccc2C(=O)N1Cc1ccc(F)cc1)Nc1ccc(C(=O)O)cn1 (stereo not drawn) [Compound 6, 6-{2-[2-(4-Fluoro-benzyl)-3-oxo-2,3-dihydro-1H-isoindol-1-yl]-acetylamino}-nicotinic acid] | 7.92 |  | 
2 | COC(=O)c1ccc(NC(=O)CCC2c3ccccc3C(=O)N2Cc2ccc(OC)cc2)nc1 (stereo not drawn) [Compound 9, 6-{3-[2-(4-Methoxy-benzyl)-3-oxo-2,3-dihydro-1H-isoindol-1-yl]-propionylamino}-nicotinic acid methyl ester] | 172 | 400 | 1.7
3 | COc1ccc(CN2C(=O)c3ccccc3C2CCS(=O)(=O)Nc2nccs2)cc1 (stereo not drawn) [Compound 10, 2-[2-(4-Methoxy-benzyl)-3-oxo-2,3-dihydro-1H-isoindol-1-yl]-ethanesulfonic acid thiazol-2-ylamide] | 15.8 |  | 
4 | O=C(CCC1c2c(F)cccc2C(=O)N1Cc1ccc(F)cc1)Nc1ccc(C(=O)O)cn1 (stereo not drawn) [Compound 11, 6-{3-[7-Fluoro-2-(4-fluoro-benzyl)-3-oxo-2,3-dihydro-1H-isoindol-1-yl]-propionylamino}-nicotinic acid] | 229 | 67 | 0.128
5 | O=C(CCC1c2c(F)cccc2C(=O)N1Cc1ccc(F)cc1)Nc1cnccn1 (stereo not drawn) [Compound 13, 3-[7-Fluoro-2-(4-fluoro-benzyl)-3-oxo-2,3-dihydro-1H-isoindol-1-yl]-N-pyrazin-2-yl-propionamide] | 272 | 240 | 0.88
6 | O=C(CCC1c2c(F)cccc2C(=O)N1Cc1ccc(F)cc1)Nc1ccc(F)cn1 (stereo not drawn) [Compound 14, 3-[7-Fluoro-2-(4-fluoro-benzyl)-3-oxo-2,3-dihydro-1H-isoindol-1-yl]-N-(5-fluoro-pyridin-2-yl)-propionamide] | 219 | 108 | 0.699
7 | COc1ccc(CN2C(=O)c3ccccc3C2COC(=O)Nc2ccccn2)cc1 (stereo not drawn) [Compound 19, Pyridin-2-yl-carbamic acid 2-(4-methoxy-benzyl)-3-oxo-2,3-dihydro-1H-isoindol-1-ylmethyl ester] | 115 | 4800 | 70
8 | O=C(CCC1c2c(F)ccc(F)c2C(=O)N1Cc1ccc(F)cc1)Nc1ccc(C(=O)O)cn1 (stereo not drawn) [Compound 20, 6-{3-[4,7-Difluoro-2-(4-fluoro-benzyl)-3-oxo-2,3-dihydro-1H-isoindol-1-yl]-propionylamino}-nicotinic acid] | 302 | 203 | 0.65
9 | CCOC(=O)c1ccnc(NC(=O)CCC2c3c(F)cccc3C(=O)N2Cc2ccc(F)cc2)c1 (stereo not drawn) [Compound 23, 2-{3-[7-Fluoro-2-(4-fluoro-benzyl)-3-oxo-2,3-dihydro-1H-isoindol-1-yl]-propionylamino}-isonicotinic acid ethyl ester] | 30.6 |  | 
10 | COc1ccc(CN2C(=O)c3ccccc3C2CNC(=O)Nc2ccccn2)cc1 (stereo not drawn) [Compound 24, 1-[2-(4-Methoxy-benzyl)-3-oxo-2,3-dihydro-1H-isoindol-1-ylmethyl]-3-pyridin-2-yl-urea] | 4.39 |  | 
11 | O=C(CCC1c2c(F)ccc(F)c2C(=O)N1Cc1ccc(F)cc1)Nc1nc(C(=O)O)cs1 (stereo not drawn) [Compound 25, 2-{3-[4,7-Difluoro-2-(4-fluoro-benzyl)-3-oxo-2,3-dihydro-1H-isoindol-1-yl]-propionylamino}-thiazole-4-carboxylic acid] | 72.5 |  | 
12 | O=C(CCC1c2c(F)cccc2C(=O)N1Cc1ccc(F)cc1)Nc1ncc(Br)s1 (stereo not drawn) [Compound 27, N-(5-Bromo-thiazol-2-yl)-3-[7-fluoro-2-(4-fluoro-benzyl)-3-oxo-2,3-dihydro-1H-isoindol-1-yl]-propionamide] | 65 | 40000 | 

Results, then the molecule that gave them:

Row | activation at 50 µM [%] | EC50 [nM] | EC100% [µM] | SMILES
13 | 153 | 3900 | 15 | O=C(CCC1c2ccccc2C(=O)N1Cc1ccc(F)cc1)Nc1ccc(C(=O)O)cn1 (stereo not drawn) [Compound 7, 6-{3-[2-(4-Fluoro-benzyl)-3-oxo-2,3-dihydro-1H-isoindol-1-yl]-propionylamino}-nicotinic acid]
14 | 167 | 3200 | 11 | COc1ccc(CN2C(=O)c3ccccc3C2CCC(=O)Nc2ccc(C(=O)O)cn2)cc1 (stereo not drawn) [Compound 8, 6-{3-[2-(4-Methoxy-benzyl)-3-oxo-2,3-dihydro-1H-isoindol-1-yl]-propionylamino}-nicotinic acid]
15 | 179 | 94 | 0.74 | O=C(CCC1c2c(F)cccc2C(=O)N1Cc1ccc(F)cc1)Nc1ccccn1 (stereo not drawn) [Compound 12, 3-[7-Fluoro-2-(4-fluoro-benzyl)-3-oxo-2,3-dihydro-1H-isoindol-1-yl]-N-pyridin-2-vi-propionamide]
16 | 188 | 530 | 3.4 | O=C(CCC1c2cccc(F)c2C(=O)N1Cc1ccc(F)cc1)Nc1ccc(C(=O)O)cn1 (stereo not drawn) [Compound 15, 6-{3-[4-Fluoro-2-(4-fluoro-benzyl)-3-oxo-2,3-dihydro-1H-isoindol-1-yl]-propionylamino}-nicotinic acid]
17 | 13.8 |  |  | O=C(Nc1ccccn1)OCCC1c2c(F)cccc2C(=O)N1Cc1ccc(F)cc1 (stereo not drawn) [Compound 16, Pyridin-2-yl-carbamic acid 2-[7-fluoro-2-(4-fluoro-benzyl)-3-oxo-2,3-dihydro-1H-isoindol-1-yl]-ethyl ester]
18 | 23.8 |  |  | O=C(Nc1ccccn1)OCCC1c2cccc(F)c2C(=O)N1Cc1ccc(F)cc1 (stereo not drawn) [Compound 17, Pyridin-2-yl-carbamic acid 2-[4-fluoro-2-(4-fluoro-benzyl)-3-oxo-2,3-dihydro-1H-isoindol-1-yl]-ethyl ester]
19 | 95 | 2000 | 46 | O=C(CCC1c2c(F)ccc(F)c2C(=O)N1Cc1ccc(F)cc1)Nc1ccc(C(F)(F)F)cn1 (stereo not drawn) [Compound 18, 3-[4,7-Difluoro-2-(4-fluoro-benzyl)-3-oxo-2,3-dihydro-1H-isoindol-1-yl]-N-(5-trifluoromethyl-pyridin-2-yl)-propionamide]
20 | 94.4 | 3100 | 26.6 | CCOC(=O)c1csc(NC(=O)CCC2c3c(F)ccc(F)c3C(=O)N2Cc2ccc(F)cc2)n1 (stereo not drawn) [Compound 21, 2-{3-[4,7-Difluoro-2-(4-fluoro-benzyl)-3-oxo-2,3-dihydro-1H-isoindol-1-yl]-propionylamino}thiazole-4-carboxylic acid ethyl ester]
21 | 73.7 | 21000 | 188 | O=C(O)Cc1csc(NC(=O)CCC2c3c(F)ccc(F)c3C(=O)N2Cc2ccc(F)cc2)n1 (stereo not drawn) [Compound 22, (2-{3-[4,7-Difluoro-2-(4-fluoro-benzyl)-3-oxo-2,3-dihydro-1H-isoindol-1-yl]-propionylamino}-thiazol-4-yl)-acetic acid]
22 | 173 | 25 | 0.46 | COC(=O)c1ccc(NC(=O)CCC2c3c(F)cccc3C(=O)N2Cc2ccc(F)cc2)nc1 (stereo not drawn) [Compound 26, 6-{3-[7-Fluoro-2-(4-fluoro-benzyl)-3-oxo-2,3-dihydro-1H-isoindol-1-yl]-propionylamino}-nicotinic acid methyl ester]
